US10907219B2, “Compositions and methods for controlling cellular function” (STC.UNM, priority 2014, dated 2021)
“Also recorded” adds a separate entry of the source.

Legend:
Type in all cases: cell-based
[1] = tested on: HEK 293T inducible EGFP reporter cell line (VP-PYL and GAL4DBD-ABI); test: Light-induced EGFP expression
Source text: To confirm that the photo-regenerated ABA is biologically functional, we determined whether it can be employed to induce PYL-ABI dimerization in an ABA-inducible transcriptional activation system using an established HEK 293T inducible EGFP reporter cell line. The cell line was created with both the ABA-responsive split transcriptional activator DNA fragment (VP-PYL and GAL4DBD-ABI linked by IRES; Liang et al., 2011, Sci. Signal. 4, rs2) and an inducible EGFP DNA fragment (with 5×UAS and the IL-2 minimal promoter) inserted into the genome (FIG. 21A). EGFP expression was activated through the recruitment of VP16AD to the EGFP gene in the presence of ABA. 24 hours after plating the cells, 10 μM of ABA, pre-irradiated ABA-DMNB products, or non-irradiated ABA-DMNB were separately added to the cells and incubated for an additional eight hours. EGFP expression was then determined using a fluorescence microscopy.
Cell culture and transfection: CHO cells and HEK 293T EGFP reporter cells (provided by Dr. Gerald R. Crabtree) were cultured in Dulbecco's modified Eagle's medium (DMEM; GIBCO, Life Technologies, Carlsbad, Calif.) with 10% FBS (Atlanta Biologicals, Inc., Norcross, Ga.), 1×GlutaMAX (GIBCO, Life Technologies, Carlsbad, Calif.), and 1× penicillin/streptomycin (Pen/Strep; GIBCO, Life Technologies, Carlsbad, Calif.). 15,000-50,000 ells were plated in a 24-well or 8-well plate for 24 hours before transfection. DNA constructs (0.1 μg-0.5 μg) were added to 50× (v/w) Opti-MEM (GIBCO, Life Technologies, Carlsbad, Calif.), and then 3× (v/w) PEI (Polysciences, Inc., Warrington, Pa.) was mixed with the DNA. The mixture was incubated for 20 minutes at room temperature before adding it to cell cultures. The cells were grown for one day after transfection before experiments were performed.
Photo-irradiation: Irradiation at 365 nm was performed with an Axio Observer (Carl Zeiss AG, Oberkochen, Germany) microscope with an HBO103 W/2 mercury arc lamp (Carl Zeiss AG, Oberkochen, Germany). Irradiation was performed by using a DAPI filter (Carl Zeiss AG, Oberkochen, Germany), set with peak excitation at 365 nm (power density: 23 mW cm^2) and a spectral width of 50 nm. No objective lens was used for whole-well irradiation, which created an area of illumination that nearly completely covered one well of a 24-well plate. Light was transmitted through the bottom of the well of polystyrene plate. Irradiation at 405 nm was performed by using an adjustable focus violet purple laser pointer (LazerPoint SKU 0733579), with an excitation wavelength of 405 nm and 1000 mW intensity positioned 8 cm above the bottom of either a 96-well or 24-well plate and irradiated through the polystyrene lid. […]

[2] = tested on: CHO cells transfected with ABA-inducible luciferase constructs; test: ABA-inducible luciferase assay
[3] = tested on: EGFP-PYL and NES-ABI in CHO cells; test: Light-induced EGFP-PYL nuclear export (fixed cells); details: for subcellular location of EGFP-PYL: CHO cells; for reversibility of EGFP nuclear exportation: washed with fresh media
Experimental: The ability to use light to control protein translocation through ABA-DMNB uncaging was evaluated next. Plasmids expressing EGFP-tagged PYL and nuclear export sequence (NES) peptide-linked ABI (FIG. 22A) were transfected into CHO cells. The transfected cells were then either treated or not treated with ABA, ABA-DMNB, or ABA-DMNB and irradiated for 60 seconds. Fluorescence microscopy analysis was used to determine subcellular locations of EGFP fusion proteins. […] Furthermore, the observed nuclear export of EGFP fusion protein can be readily reversed by washing away the uncaged ABA using fresh media. Thus, protein translocation can be induced by light through photo-uncaged ABA and can be readily reversed.
Slide preparation: Cells were grown on glass coverslips in 24-well plates. The coverslips were washed with phosphate-buffered saline (PBS) and fixed with 4% paraformaldehyde (PFA, 300 μL, prepared in PBS) at room temperature for 20 min. The cells were then washed twice with PBS and incubated with 1×DAPI in the dark at the room temperature for 5 min. After a final wash with PBS, the coverslips were mounted on a glass slide with VECTASHIELD (Vector Laboratories, Inc., Burlingame, Calif.) mounting media and allowed to stand for two hours in the dark before imaging.
Fluorescence microscopy imaging: Slides were imaged with an Axio Observer (Carl Zeiss AG, Oberkochen, Germany) microscope or with am LSM 510 Meta confocal microscope (Carl Zeiss AG, Oberkochen, Germany) mounted on an AxioObserver inverted microscope with a 63× oil objective. Images were taken with DAPI and GFP channels.
Statistical analysis of cell population: Cell were categorized as displaying nuclear export of EGFP when the fluorescent intensity of the nucleus was less than 60% of the intensity of the cytoplasm. […] Cells were counted from three separate experiments, with N>50 for each experiment.

[4] = 10 μM, not irradiated, eight hours

| SMILES | eGFP expression [1, 4] | dose dependence of gene expression ([2]; increasing dosages, not irradiated) | subcellular location of EGFP-PYL ([3]; not irradiated) | reversibility of EGFP nuclear exportation ([3]; not irradiated) | EGFP-PYL nuclear export ([3]; 10 μM, 405 nm light irradiation, fixed CHO cells) | eGFP expression ([1]; 10 μM, pre-irradiated (pre-photocleaved) products, eight hours) | eGFP expression ([1]; irradiated in cell culture, 365 nm) | dose dependence of luciferase expression ([2]; increasing concentrations, with irradiation) | luciferase expression ([2]; irradiated 365 nm UV 120 seconds in cell culture, twelve hours) | subcellular location of EGFP-PYL ([3]; 365 nm UV irradiation 60 seconds) | reversibility of EGFP nuclear exportation ([3]; after UV irradiation) | subcellular location of EGFP-PYL ([3]; not irradiated, listed as ABADMNB) |
| --- | --- | --- | --- | --- | --- | --- | --- | --- | --- | --- | --- | --- |
| CC1=CC(=O)CC(C)(C)C1(O)/C=C/C(C)=C\C(=O)O (centres unmarked) [ABA, abscisic acid, reference compound] | induced EGFP production | dose-dependent induction of gene expression | exported out of the nucleus; also recorded: markedly decreased intensities of EGFP in the nuclei within 15 minutes | reversed following three washes (within 30 minutes) |  |  |  |  |  |  |  |  |
| CCN(CC)c1ccc2c(COC(=O)/C=C(C)\C=C\[C@@]3(O)C(C)=CC(=O)CC3(C)C)cc(=O)oc2c1 [ABA-DEACM] |  |  |  |  | ability to induce EGFP-PYL nuclear export |  |  |  |  |  |  |  |
| COc1cc(COC(=O)/C=C(C)\C=C\[C@@]2(O)C(C)=CC(=O)CC2(C)C)c([N+](=O)[O-])cc1OC [ABA-DMNB] | did not induce EGFP expression |  | EGFP distribution throughout the whole cells |  |  | induced EGFP production | showed EGFP expression | corresponding increases in the level of luciferase expression | induced luciferase expression | exported out of the nucleus; also recorded: markedly decreased intensities of EGFP in the nuclei within 15 minutes | reversed following three washes (within 30 minutes) | distributed throughout the cell |
